Experimental data: ChEMBL document CHEMBL4739717, “Methods of treating cartilage disorders through inhibition of clk and dyrk” (2020)

Legend:
[1] = Induction of chondrogenesis in human MSC assessed as maximum activity at 10 nM incubated for 6 days by rhodamine B and Nile red staining based imaging analysis relative to control; format: functional; conditions: BMMSC, 144 h, time 6 day
[2] = target: Dual specificity tyrosine-phosphorylation-regulated kinase 1A (Homo sapiens, UniProt Q13627); assay: Inhibition of recombinant DYRK1A (unknown origin) using Ser/Thr 18 peptide as substrate incubated for 1 hr in presence of ATP by FRET assay
[3] = Effect on Wnt signaling pathway in human SW480 cells harbouring TCF/LEF luciferase reporter gene and SP5-Luc reporter gene incubated for 36 to 48 hrs by luminescence assay; format: cell-based
[4] = target: Dual specificity protein kinase CLK3 (Homo sapiens, UniProt P49761); assay: Inhibition of recombinant CLK3 (unknown origin) using Ser/Thr 18 peptide as substrate incubated for 1 hr in presence of ATP by FRET assay
Dual specificity protein kinase CLK3, sequence (P49761 whole entry): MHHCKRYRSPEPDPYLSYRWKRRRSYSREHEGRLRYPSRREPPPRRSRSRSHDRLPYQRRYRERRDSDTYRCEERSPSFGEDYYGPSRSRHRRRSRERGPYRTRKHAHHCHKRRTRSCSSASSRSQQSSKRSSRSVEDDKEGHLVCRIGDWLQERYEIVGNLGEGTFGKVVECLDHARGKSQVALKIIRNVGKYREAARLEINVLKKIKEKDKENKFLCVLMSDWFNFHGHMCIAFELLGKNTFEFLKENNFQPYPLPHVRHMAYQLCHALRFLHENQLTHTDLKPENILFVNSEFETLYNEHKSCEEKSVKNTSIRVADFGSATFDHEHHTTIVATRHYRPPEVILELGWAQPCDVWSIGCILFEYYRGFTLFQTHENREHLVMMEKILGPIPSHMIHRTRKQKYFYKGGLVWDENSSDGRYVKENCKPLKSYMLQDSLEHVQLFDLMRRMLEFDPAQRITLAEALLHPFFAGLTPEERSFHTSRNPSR

[5] = Inhibition of IL1-beta induced MMP3 expression levels in human chondrocytes assessed as MMP3 levels incubated for 2hrs followed by IL1-beta stimulation and measured after overnight incubation by LANCE assay; format: functional, cell-based; conditions: Chondrocyte
[6] = Induction of chondrogenesis in human MSC assessed as maximum activity at 300 nM incubated for 6 days by rhodamine B and Nile red staining based imaging analysis relative to control; format: functional; conditions: BMMSC, 144 h, time 6 day
[7] = Induction of chondrogenesis in human MSC assessed as incubated for 6 days by rhodamine B and Nile red staining based imaging analysis; format: functional; conditions: bmmsc

SMILES	Emax at 0.01 µM [1] [%]	EC50 [2] [nM]	EC50 [3] [nM]	EC50 [4] [nM]	EC50 [5] [nM]	Emax at 0.3 µM [6] [%]	EC50 [7] [nM]
O=C(Nc1cncc(-c2cnc3[nH]nc(-c4cc5cccnc5[nH]4)c3c2)c1)c1ccccc1	21.8	14	> 10000	> 10000	–	–	–
O=C(Nc1cc2cc(-c3cncs3)ccc2cn1)C1(F)CCCCC1	–	8	> 10000	> 10000	3000	–	–
CN(C)CCNc1cc(F)cc(-c2cccc3[nH]c(-c4n[nH]c5ncc(-c6ccncc6)cc45)cc23)c1	–	> 10000	6070	> 10000	4	–	–
Nc1cncc(-c2cnc3[nH]nc(-c4cc5c(-c6ccncc6)ccnc5[nH]4)c3c2)c1	–	19	> 10000	> 10000	–	–	–
COc1cncc(-c2ccc3[nH]nc(-c4nc5c(N6CCCCC6)ccnc5[nH]4)c3n2)c1	–	> 10000	> 10000	> 10000	123	–	–
Fc1ccc(-c2cccc3[nH]c(-c4n[nH]c5ncc(-c6cncc(CN7CCCCC7)c6)cc45)cc23)cc1	–	> 10000	3660	> 10000	46.1	–	–
CC(F)(F)CN1CCC(C(=O)Nc2cc3cc(-c4cnco4)cnc3cn2)CC1	–	–	> 10000	> 10000	3000	–	–
COc1cncc(C#Cc2c[nH]nc2C(=O)Nc2ccc(N3CCNCC3)nc2)c1	74.7	11	> 10000	> 10000	–	–	–
Fc1cccc(-c2cncc3[nH]c(-c4n[nH]c5ccc(-c6cnccn6)nc45)nc23)c1	–	> 10000	> 10000	> 10000	3000	–	–
O=C(Nc1c[nH]nc1C(=O)Nc1ccc(N2CCC(F)(F)C2)nc1)c1cncc(OC2CCNCC2)c1	–	10	2220	–	280	75.2	–
CN1CC2CCC(C1)N2C(=O)Nc1cc2cc(-c3cnn(C)c3)ccc2cn1	–	–	> 10000	> 10000	–	–	–
O=C(Nc1cccnc1)c1n[nH]cc1C#Cc1cncc(OC2CCNCC2)c1	–	24	1270	> 10000	0.2	–	–
FC1(F)CCN(Cc2cncc(-c3ccc4[nH]nc(-c5cc6cnccc6[nH]5)c4n3)c2)C1	–	3	45	–	–	134	300
Fc1ccc(-c2cccc3[nH]c(-c4n[nH]c5ccc(-c6cncnc6)nc45)nc23)cc1	–	> 10000	> 10000	> 10000	3000	–	–
Nc1cncc(-c2cc3c(-c4cc5c(-c6ccccc6F)nccc5[nH]4)n[nH]c3cn2)c1	–	5	224	–	–	117	10
c1cncc(-c2ccc3[nH]nc(-c4nc5c(-c6cccnc6)ccnc5[nH]4)c3n2)c1	–	28	1510	–	–	94.6	300
Cc1n[nH]c2cc(F)c(-c3cncc(CN4CCCCC4)n3)cc12	–	60	2440	3380	3000	–	–
O=C(Cc1ccccc1)Nc1cncc(-c2ccc3[nH]nc(-c4nc5c(-c6ccncc6)ccnc5[nH]4)c3n2)c1	–	> 10000	> 10000	> 10000	–	–	–
O=C(Nc1cncc(-c2ccc3[nH]nc(-c4nc5c(-c6ccc(F)cc6)cncc5[nH]4)c3c2)c1)C1CCC1	–	73	5.7	–	–	203	100
Fc1cccc(-c2ccnc3[nH]c(-c4n[nH]c5ncc(-c6cn[nH]c6)cc45)nc23)c1	–	16	30.2	–	–	110	100

SMILES	Emax at 0.01 µM [1] [%]	EC50 [2] [nM]	EC50 [3] [nM]	EC50 [4] [nM]	EC50 [5] [nM]	Emax at 0.3 µM [6] [%]	EC50 [7] [nM]
Cc1ccncc1-c1ccc2[nH]nc(-c3cc4ccncc4[nH]3)c2c1	–	21	191	–	–	161	300
O=C(Nc1cc2cc(-c3cnco3)cnc2cn1)[C@H]1CC[C@H](CO)CC1	–	–	> 10000	> 10000	–	–	–
CC(C)C(=O)Nc1cncc(-c2ccc3[nH]nc(-c4nc5c(-c6ccccc6F)cncc5[nH]4)c3n2)c1	–	30	> 10000	–	–	181	10
COc1cccc(-c2cncc3[nH]c(-c4n[nH]c5ccc(-c6cn[nH]c6)nc45)nc23)c1	–	> 10000	> 10000	> 10000	–	–	–
COc1cccc(-c2cncc3[nH]c(-c4n[nH]c5ccc(-c6cncc(NC(=O)C7CCCCC7)c6)nc45)nc23)c1	–	> 10000	> 10000	> 10000	3000	–	–
CN(C)c1cncc(-c2cc3c(-c4cc5cnccc5[nH]4)n[nH]c3cn2)c1	–	12	3060	–	–	101	300
Nc1cncc(-c2cc3c(-c4cc5c(-c6ccccc6F)ccnc5[nH]4)n[nH]c3cn2)c1	32.4	42	> 10000	> 10000	–	–	–
O=C(Nc1cccnc1)Nc1c[nH]nc1C(=O)Nc1ccc(C(F)(F)F)nc1	–	22	679	> 10000	8.7	–	–
Nc1cncc(-c2ccc3[nH]nc(-c4cc5c(-c6cccnc6)nccc5[nH]4)c3c2)c1	–	2	146	–	–	178	100
CC(C)(C)C(=O)Nc1cncc(-c2ccc3[nH]nc(-c4nc5c(-c6ccc(F)s6)ccnc5[nH]4)c3c2)c1	–	98	16.7	–	–	120	30
c1csc(-c2ccnc3[nH]c(-c4n[nH]c5ccc(-c6cncc(OC7CCNCC7)c6)nc45)cc23)c1	–	43	3550	–	–	51.4	300
CN(C)CCOc1cc(C(=O)Nc2cc3cc(-c4cnn(C)c4)ccc3cn2)ccn1	–	–	–	30	1010	–	–
CC(C)N1CCC(c2nc(C(=O)Nc3cc4cc(-c5cnn(C)c5)ccc4cn3)co2)CC1	–	–	80	20	57.3	–	–
CC(C)Nc1cncc(-c2ccc3[nH]nc(-c4nc5c(-c6ccoc6)nccc5[nH]4)c3c2)c1	–	44	43.5	–	–	90.2	30
Nc1cncc(-c2ccc3[nH]nc(-c4nc5c(-c6ccccc6F)cncc5[nH]4)c3n2)c1	–	7	> 10000	–	–	98.2	10
CN1CCN(c2ccnc3[nH]c(-c4n[nH]c5cnc(-c6cncc(CNCC7CCCC7)c6)cc45)cc23)CC1	–	51	> 10000	–	–	150	300
Fc1ccccc1-c1nccc2[nH]c(-c3n[nH]c4cnc(-c5cn[nH]c5)cc34)cc12	–	63	30.5	–	–	89.2	10
O=C(Nc1cncc(-c2cc3c(-c4cc5cnccc5[nH]4)n[nH]c3cn2)c1)c1ccccc1	–	3	580	–	–	152	10
O=C(Nc1cncc(-c2cc3c(-c4cc5c(-c6cccc(F)c6)ccnc5[nH]4)n[nH]c3cn2)c1)C1CC1	–	> 10000	9.7	> 10000	298	–	–
O=C(Nc1ccnc(C(F)(F)F)c1)c1n[nH]c2ccc(-c3cncc(CN4CCCCC4)c3)cc12	–	4	36.4	–	–	69	100
